Residues, ends and D or L forms follow the SMILES beside them.
Columns and labels:
[1] = Usable mediums: solubility and gel formation, conventional art vs palmitoyl-Gly-His; format: physicochemical
[2] = Non-patent Document 10; cited from earlier work

SMILES: CCCCCCCCCCCCCCCC(=O)NCC(=O)NCC(=O)NCC(=O)N[C@@H](Cc1c[nH]cn1)C(=O)O [palmitoyl-Gly-Gly-Gly-His] (HELM PEPTIDE1{[CCCCCCCCCCCCCCCC(=O)[*:2]].G.G.G.H}$$$$V2.0)
- Solubility in medium ([1]; 50 mM acetate buffer with pH 5, even when heated): insoluble
- Solubility in medium ([1]; 50 mM citrate buffer with pH 5, even when heated): insoluble
- Gel formation ([1]; ethanol/water mixed solvent having an ethanol concentration of 80% or more): does not form a gel
- lowest gelation concentration [2]: 0.03 wt %

From patent US9289496B2, “Lipid dipeptide and gel” (Nissan Chemical Industries, Ltd., priority 2008, dated 2016)
